According to ChEMBL document CHEMBL4312005, “Optimization of pyrrolizine-based Schiff bases with 4-thiazolidinone motif: Design, synthesis and investigation of cytotoxicity and anti-inflammatory potency” (Eur J Med Chem, 2020):

Experiments:
[1] = target: Activin receptor type-1-like (Homo sapiens) (UniProt P37023); test: Inhibition of recombinant human N-terminal GST-tagged ALK1 (144 to end residues) expressed in baculovirus infected Sf9 insect cells assessed as enzyme activity incubated for 15 mins by [gamma-33]ATP based scintillation counting method relative to control; set-up: scale not given: the % may be the effect or the level left
Activin receptor type-1-like (Homo sapiens), sequence (P37023 whole entry): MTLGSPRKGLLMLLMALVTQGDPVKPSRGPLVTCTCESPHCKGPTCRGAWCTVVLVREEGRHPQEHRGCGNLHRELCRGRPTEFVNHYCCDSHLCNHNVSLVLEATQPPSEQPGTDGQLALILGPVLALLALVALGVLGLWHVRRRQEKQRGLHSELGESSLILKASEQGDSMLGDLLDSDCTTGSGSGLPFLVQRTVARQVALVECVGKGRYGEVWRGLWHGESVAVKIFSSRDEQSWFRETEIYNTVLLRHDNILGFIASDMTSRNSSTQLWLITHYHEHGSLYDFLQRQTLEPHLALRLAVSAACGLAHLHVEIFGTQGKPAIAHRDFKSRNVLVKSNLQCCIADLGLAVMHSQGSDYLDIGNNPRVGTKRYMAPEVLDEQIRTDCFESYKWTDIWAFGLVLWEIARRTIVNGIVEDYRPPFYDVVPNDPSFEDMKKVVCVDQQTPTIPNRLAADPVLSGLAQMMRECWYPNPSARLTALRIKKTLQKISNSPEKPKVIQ

[2] = target: Glycogen synthase kinase-3 alpha (Homo sapiens) (UniProt P49840); test: Inhibition of recombinant human N-terminal GST-tagged full length GSK3alpha expressed in baculovirus infected Sf9 insect cells assessed as enzyme activity incubated for 15 mins by [gamma-33]ATP based scintillation counting method relative to control; set-up: scale not given: the % may be the effect or the level left
Glycogen synthase kinase-3 alpha (Homo sapiens), sequence (P49840 2-483 limits assumed): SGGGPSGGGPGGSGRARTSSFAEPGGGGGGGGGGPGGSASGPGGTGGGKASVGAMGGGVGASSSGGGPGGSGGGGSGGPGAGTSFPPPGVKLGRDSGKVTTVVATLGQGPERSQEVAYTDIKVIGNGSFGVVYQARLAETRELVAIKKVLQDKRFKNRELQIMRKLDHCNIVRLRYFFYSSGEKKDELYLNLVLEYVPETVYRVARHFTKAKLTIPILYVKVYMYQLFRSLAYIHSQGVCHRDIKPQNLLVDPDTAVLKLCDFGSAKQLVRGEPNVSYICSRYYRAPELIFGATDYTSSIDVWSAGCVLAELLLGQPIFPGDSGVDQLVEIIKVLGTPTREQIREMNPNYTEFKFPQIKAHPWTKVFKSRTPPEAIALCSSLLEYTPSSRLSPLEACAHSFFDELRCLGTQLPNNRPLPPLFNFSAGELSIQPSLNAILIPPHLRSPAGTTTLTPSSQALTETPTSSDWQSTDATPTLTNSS

[3] = target: T1, Ephrin type-A receptor 1 (Homo sapiens) (UniProt P21709); test: Inhibition of recombinant human N-terminal GST-tagged EPHA1 (569 to end residues) expressed in baculovirus infected Sf9 insect cells assessed as enzyme activity incubated for 15 mins by [gamma-33]ATP based scintillation counting method relative to control; set-up: scale not given: the % may be the effect or the level left
T1 sequence (whole entry): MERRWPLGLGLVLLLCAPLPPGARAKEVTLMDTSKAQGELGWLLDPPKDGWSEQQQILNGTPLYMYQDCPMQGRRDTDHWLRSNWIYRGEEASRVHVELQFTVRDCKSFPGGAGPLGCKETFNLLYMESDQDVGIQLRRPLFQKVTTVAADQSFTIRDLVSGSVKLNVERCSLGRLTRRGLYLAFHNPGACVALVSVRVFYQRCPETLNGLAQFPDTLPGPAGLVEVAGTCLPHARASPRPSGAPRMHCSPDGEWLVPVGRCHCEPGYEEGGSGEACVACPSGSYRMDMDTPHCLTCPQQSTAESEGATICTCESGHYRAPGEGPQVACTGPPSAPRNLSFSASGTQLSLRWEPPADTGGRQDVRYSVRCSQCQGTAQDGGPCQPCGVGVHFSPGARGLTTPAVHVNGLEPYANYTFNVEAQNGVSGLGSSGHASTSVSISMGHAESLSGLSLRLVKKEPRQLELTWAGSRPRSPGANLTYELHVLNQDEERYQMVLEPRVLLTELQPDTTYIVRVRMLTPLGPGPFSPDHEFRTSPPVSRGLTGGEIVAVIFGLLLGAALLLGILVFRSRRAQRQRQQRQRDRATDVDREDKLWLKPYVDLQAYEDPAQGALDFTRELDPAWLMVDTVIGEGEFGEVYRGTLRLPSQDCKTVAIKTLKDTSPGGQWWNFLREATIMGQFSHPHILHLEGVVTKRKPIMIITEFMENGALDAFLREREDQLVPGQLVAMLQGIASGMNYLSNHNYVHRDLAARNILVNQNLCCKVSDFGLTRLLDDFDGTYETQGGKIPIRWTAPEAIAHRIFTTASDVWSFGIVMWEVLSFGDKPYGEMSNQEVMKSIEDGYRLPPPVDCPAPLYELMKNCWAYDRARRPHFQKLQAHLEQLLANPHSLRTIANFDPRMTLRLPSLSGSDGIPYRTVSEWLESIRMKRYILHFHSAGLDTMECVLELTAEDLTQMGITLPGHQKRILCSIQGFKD

MCF7 [4] = test: Induction of apoptosis in human MCF7 cells assessed as necrotic cells at 10 uM incubated for 24 hrs by annexin V FITC and propidium iodide staining based flow cytometry (reference value: 4.1 to […]); format: functional
MCF7 [5] = test: Induction of apoptosis in human MCF7 cells assessed as necrotic cells at 1 uM incubated for 24 hrs by annexin V FITC and propidium iodide staining based flow cytometry (reference value: 4.1 to […]); format: functional
MCF7 [6] = test: Cell cycle arrest in human MCF7 cells assessed as S phase accumulation at 10 uM incubated for 24 hrs by propidium iodide based flow cytometry (reference value: 17.3 to 28.5 %); format: functional
MCF7 [7] = test: Induction of apoptosis in human MCF7 cells assessed as early apoptotic cells at 5 uM incubated for 24 hrs by annexin V FITC and propidium iodide staining based flow cytometry (reference value: 0 to 9 %); format: functional
MCF7 [8] = test: Cell cycle arrest in human MCF7 cells assessed as G2/M phase accumulation at 10 uM incubated for 24 hrs by propidium iodide based flow cytometry (reference value: 17.2 to 26.8 %); format: functional
[9] = target: T2, Serine/threonine-protein kinase Nek1 (Homo sapiens) (UniProt Q96PY6); test: Inhibition of recombinant human N-terminal GST-tagged full length NEK1 expressed in baculovirus infected Sf9 insect cells assessed as enzyme activity incubated for 15 mins by [gamma-33]ATP based scintillation counting method relative to control; set-up: scale not given: the % may be the effect or the level left
T2 sequence (whole entry): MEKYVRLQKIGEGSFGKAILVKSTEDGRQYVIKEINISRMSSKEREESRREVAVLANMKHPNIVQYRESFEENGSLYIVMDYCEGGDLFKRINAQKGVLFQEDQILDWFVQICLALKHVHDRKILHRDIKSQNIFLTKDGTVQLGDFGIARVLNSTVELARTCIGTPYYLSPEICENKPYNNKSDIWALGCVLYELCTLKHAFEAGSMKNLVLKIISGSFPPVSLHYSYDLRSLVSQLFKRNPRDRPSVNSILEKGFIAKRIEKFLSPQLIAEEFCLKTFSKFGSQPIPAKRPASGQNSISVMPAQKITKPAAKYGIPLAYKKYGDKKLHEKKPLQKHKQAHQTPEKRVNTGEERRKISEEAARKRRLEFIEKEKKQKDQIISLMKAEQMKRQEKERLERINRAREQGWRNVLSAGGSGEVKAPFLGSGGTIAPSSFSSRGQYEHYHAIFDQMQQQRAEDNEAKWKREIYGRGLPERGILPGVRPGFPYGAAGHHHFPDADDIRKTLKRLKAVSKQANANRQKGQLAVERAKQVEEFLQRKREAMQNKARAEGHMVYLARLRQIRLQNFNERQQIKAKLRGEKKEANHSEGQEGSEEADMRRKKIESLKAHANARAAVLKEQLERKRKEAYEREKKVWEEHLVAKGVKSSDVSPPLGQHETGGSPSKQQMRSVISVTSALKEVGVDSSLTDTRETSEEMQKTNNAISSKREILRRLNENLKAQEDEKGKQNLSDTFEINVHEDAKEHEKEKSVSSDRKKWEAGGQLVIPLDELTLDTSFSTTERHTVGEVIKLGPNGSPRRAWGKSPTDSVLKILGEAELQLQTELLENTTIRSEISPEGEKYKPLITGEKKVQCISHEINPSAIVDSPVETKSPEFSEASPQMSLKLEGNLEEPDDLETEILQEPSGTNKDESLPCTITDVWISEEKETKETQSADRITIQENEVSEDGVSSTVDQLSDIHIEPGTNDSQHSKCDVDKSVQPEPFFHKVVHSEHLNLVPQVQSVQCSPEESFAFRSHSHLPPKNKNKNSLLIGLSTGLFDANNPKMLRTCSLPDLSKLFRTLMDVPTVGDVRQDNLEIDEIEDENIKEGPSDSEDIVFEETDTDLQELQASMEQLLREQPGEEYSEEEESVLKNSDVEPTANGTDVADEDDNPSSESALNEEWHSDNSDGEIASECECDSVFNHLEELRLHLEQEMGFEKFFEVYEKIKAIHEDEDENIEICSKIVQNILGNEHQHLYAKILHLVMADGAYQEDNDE

Row | Compound | Activity [1] [%] | Activity [2] [%] | Activity [3] [%] | Activity (MCF7 [4]) [%] | Activity (MCF7 [5]) [%] | Activity (MCF7 [6]) [%] | Activity (MCF7 [7]) [%] | Activity (MCF7 [8]) [%] | Activity [9] [%]
1 | Cc1ccc(NC(=O)c2ccc(CN3CCN(C)CC3)cc2)cc1Nc1nccc(-c2cccnc2)n1 | 14 | -1 | 22 |  |  |  |  |  | 
2 | CCC1SCC(=O)N1c1c(C#N)c2n(c1C(=O)Nc1ccccc1)CCC2 (stereo not given) | -11 | -12 | 4 | 3.7 | 1 | 14.2 | 14.3 | 14.1 | 10
3 | CC(C)C/C=N/c1c(C#N)c2n(c1C(=O)Nc1ccc(Br)cc1)CCC2 | -5 | -3 | 25 | 14.7 | 20.8 | 55.2 | 16.5 | 15.1 | -14
4 | CC/C=N/c1c(C#N)c2n(c1C(=O)Nc1ccccc1)CCC2 | 4 | -24 | -5 |  |  |  |  |  | -1
